Measured values reported in PubChem BioAssay AID179 (DTP/NCI, 2004).
The source made the active and inactive calls.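 How the source made its calls: active means compounds giving half or more protection of infected cells from virus-caused growth loss, again on retest; inactive means the rest.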 Where a SMILES comes first, the peptide text is derived from it.

Tested on: CEM cells HIV-1 protection, formazan growth assay
Test: NCI AIDS Antiviral Assay
Conditions: for IC50: measured here: growth of uninfected CEM cells
Outline: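 Soluble formazan readout of cell growth; CEM cells ± HIV-1; 5 drug concs. ≥50% protection → retest; ≥50% again = moderately active; reproducible 100% = confirmed active.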

Row | Structure (SMILES) | outcome | EC50 | IC50
1 | CN1C(=O)CC(=O)N(c2ccccc2)c2cc(Cl)ccc21 | inactive | – | –
2 | Cc1cc2c(cc1O)CC[C@@H]1[C@@H]2CC[C@]2(C)[C@@H](O)CC[C@@H]12 | – | > 200 µM | 4.07 µM
3 | CN=C(NC#N)N(Cc1ccccc1)Cc1ccccc1 | – | > 129 µM | > 100 µM
4 | Cc1ccc(/C(C#N)=C/c2ccc(N(C)C)cc2)cc1 | – | > 200 µM | 1.29 µM
5 | O=C1NNC2(C(=O)N1)c1ccccc1-c1ccccc12 | – | > 200 µM | 93.3 µM
6 | O=P(c1ccccc1)(c1ccccc1)c1ccc2c(c1)OCCOCCOCCOCCO2 | – | > 200 µM | > 200 µM
7 | CC(C)CC(N)C(=O)NC(CC(=O)O)C(=O)NC(CCCCN)C(=O)NC(C)C(=O)NC(CO)C(=O)NC(Cc1ccc(O)cc1)C(=O)NC(CO)C(=O)NC(C(=O)O)C(C)O (configuration not stated) (H-LDKASYST-OH; configuration not given here) | – | > 56.2 µM | > 56.2 µM
8 | O=C1CCC2CCc3cccc4oc1c2c34 (configuration not stated) | inactive | – | –
9 | CN=c1sc2nc(C#N)c(C#N)nc2n1C | – | > 200 µM | 10.2 µM
10 | CCOC(=O)C(C(=O)OCC)C(c1ccc(OC)cc1)N1CCN(C(c2ccc(OC)cc2)C(C(=O)OCC)C(=O)OCC)CC1 (configuration not stated) | – | > 100 µM | > 100 µM
11 | N[C@H]1c2c(Br)sc(Br)c2C(=O)[C@H]1O | – | > 200 µM | 7.59 µM
12 | C/C(=N\N=C(/[O-])c1ccccc1)c1cccc(/C(C)=N/N=C(\[O-])c2ccccc2)n1.O.[Ni+2] | – | > 100 µM | > 100 µM
13 | COc1ccc(C2CCc3cc4c(cc3/C2=N/OC(C)=O)OCO4)cc1OC (configuration not stated) | inactive | – | –
14 | COC(=O)c1onc(C2OC(C)(C)OC2C(O)COC(c2ccccc2)(c2ccccc2)c2ccccc2)c1C(=O)OC (configuration not stated) | – | > 200 µM | 15.1 µM
15 | CC(C)(C)SS(=O)C(C)(C)C (configuration not stated) | – | > 97.7 µM | > 97.7 µM
16 | O=C1OC(=O)C2C1CC1C(=O)OC(=O)C12 (configuration not stated) | – | > 1200 µM | > 1200 µM
17 | CC(=O)Nc1cc(N=Nc2ccc(N=Nc3ccc(NC(=O)c4ccc(N)cc4)cc3C)cc2C)c(S(=O)(=O)O)cc1N=Nc1ccc(S(=O)(=O)O)cc1 | – | 12.9 µM | 155 µM
18 | Nc1nnc(CCC(=O)Nc2cc(Cl)ccc2Cl)n1N | – | > 8.71 µM | > 8.71 µM
19 | CC(C)=C1CCC(C)C/C1=N\NC(N)=S (configuration not stated) | – | > 200 µM | 19.5 µM
20 | Nc1nc2c(ccn2[C@H]2C=C[C@@H](CO)C2)c(=O)[nH]1 | – | > 275 µM | > 275 µM

Row | Structure (SMILES) | outcome | EC50 | IC50
21 | CNC(=O)N(C)CN(C)C(=O)NC | – | > 479 µM | 229 µM
22 | CCCC[P+](CCCC)(CCCC)C(C(=O)OC)C(C(=O)OC)=C1SC(C(=O)OC)=C(C(=O)OC)S1 (configuration not stated) | – | > 200 µM | > 200 µM
23 | CCCCCCCCCCCCOC(=S)NC | inactive | – | –
24 | C[C@]12CC[C@H](O)CC1=CCC1C2CC[C@@]2(C)C1CC[C@@H]2COS(=O)(=O)O (some centres not stated) | – | > 61.7 µM | > 61.7 µM
25 | Cc1oc(C)c2c1C(=O)c1ccccc1C2=O | – | > 200 µM | 123 µM
26 | C1CSCCCSCCCSCCCSCCCSCCCSCCCSCCCSC1 | – | > 8.71 µM | > 8.71 µM
27 | COc1ccc(N2C(=O)C3c4[nH]c5ccccc5c4C4C(C)CCCC4C3C2=O)cc1 (configuration not stated) | – | > 200 µM | 8.13 µM
28 | CC1(C)CNC[C@@]2(C)OCCN(C(=O)OC(C)(C)C)CCO[C@]3(C)CNCC(C)(C)NC(=O)[C@@](C)(CNCC(C)(C)NC3=O)OCCN(C(=O)OC(C)(C)C)CCO[C@](C)(CNCC(C)(C)NC2=O)C(=O)N1 | inactive | – | –
29 | C/C=C/C#CC#CC(O)C(/C=C/CCCO)OC1OC(CO)C(O)C(O)C1O (configuration not stated) | – | > 158 µM | > 158 µM
30 | N#CNC(=NCCO)NCCO | – | > 525 µM | > 525 µM
31 | CC[n+]1c(/C=C/c2ccc(N(CCCl)CCCl)cc2)ccc2cc(NC(=O)/C=C/c3ccccc3)ccc21 | inactive | – | –
32 | O=C(O)c1cccc(Nc2c(C(=O)O)cccc2[N+](=O)[O-])c1 | – | > 200 µM | 6.31 µM
33 | O=C(/C=C/c1ccsc1)c1cccs1 | – | > 200 µM | 3.55 µM
34 | COc1ccc(/C=C2\C=Cc3ccccc32)cc1OC | – | > 200 µM | 33.9 µM
35 | c1ccc(C2N3CCCCC3[C@@H]3c4[nH]c5ccccc5c4CCN23)nc1 (some centres not stated) | – | > 105 µM | > 105 µM
36 | CC(=O)OCC1OC(n2c3c(c(-c4ccc(C)cc4)c(C#N)c2=S)C(=O)CC(C)(C)C3)C(OC(C)=O)C(OC(C)=O)C1OC(C)=O (configuration not stated) | – | > 200 µM | 16.6 µM
37 | O=C(CCC(C(=O)OCc1ccccc1)C(=O)OCc1ccccc1)Nc1ccc(OCc2ccccc2)cc1 | – | > 200 µM | 107 µM
38 | CC(NC(=O)NC(C)(C)C)NC(=O)C(N)CC(=O)O (configuration not stated) | – | > 200 µM | > 200 µM
39 | C/C(=N/NC(=O)c1ccccc1O)c1ccc(/C(C)=N\NC(=O)c2ccccc2O)c2nc3cc(C)c(C)cc3nc12 | – | > 64.6 µM | > 64.6 µM
40 | CNC(=O)NCCCC(NC(C)=O)C(=O)NCc1ccccc1 (configuration not stated) | – | > 112 µM | > 112 µM

Row | Structure (SMILES) | outcome | EC50 | IC50
41 | N#Cc1c(N)nc([Se]CC(=O)c2ccc(Cl)cc2)c(C#N)c1-c1ccco1 | – | > 200 µM | 141 µM
42 | O=S(=O)(O)c1cc(N=Nc2cc(S(=O)(=O)O)c3cccnc3c2O)ccc1/C=C/c1ccc(N=Nc2cc(S(=O)(=O)O)c3cccnc3c2O)cc1S(=O)(=O)O (tested in a mixture with another compound) | – | 2.95 µM | 50.1 µM
43 | CCOC(=O)C1=NN(c2ccccc2)C(=O)/C1=C\N1C(=O)/C(=C/c2cccc(OC)c2O)SC1=S | – | > 100 µM | 53.7 µM
44 | Cn1cnc([N+](=O)[O-])c1Sc1nncc2[nH]cnc12 | – | 46.8 µM | > 200 µM
45 | [N-]=[N+]=Nc1c(Cc2ccccc2)c(Cl)nc2ccccc12 | – | > 200 µM | 19.1 µM
46 | O=S(=O)(Nc1ncccn1)c1ccc(N=NSC2=NC=NC3=NC=NC32)cc1 (configuration not stated) | – | > 200 µM | 5.25 µM
47 | C=CC[C@H]1[C@@H](O[Si](C)(C)C(C)(C)C)[C@H](n2ccc(=O)[nH]c2=O)O[C@@H]1CO[Si](C)(C)C(C)(C)C | – | > 200 µM | 10 µM
48 | CCN=C(NC(=O)c1c(Cl)cccc1Cl)SCSC(=NCC)NC(=O)c1c(Cl)cccc1Cl | – | > 200 µM | 170 µM
49 | COc1cccc2ccc3c(c12)C(=O)OC31CCc2c(C)cccc21 (configuration not stated) | inactive | – | –
50 | CN(C)c1nc(N(C)C)n2c(-c3ccccc3[N+](=O)[O-])nnc2n1 | – | > 60.3 µM | 41.7 µM
51 | CCC12CCCN(Cc3ccccc3)C1c1c(n(C)c3ccccc13)CC2 (configuration not stated) | – | > 66.1 µM | > 66.1 µM
52 | O=C(Nc1ccc(/C=C\c2ccc(NC(=O)c3cc(S(=O)(=O)O)ccc3O)cc2S(=O)(=O)O)c(S(=O)(=O)O)c1)c1cc(S(=O)(=O)O)ccc1O | – | 70.8 µM | > 100 µM
53 | C=CCCC(O)c1cc(C)c(O)c(C)c1 (configuration not stated) | – | > 457 µM | 229 µM
54 | COc1ccc(/C=C/C(=O)C(C)(C)C)cc1OC | – | > 200 µM | 39.8 µM
55 | OCC(O)C(OC1OC(CO)C(O)C(O)C1O)c1nn(-c2ccc(F)cc2)c2nc3cc(Cl)c(Cl)cc3cc12 (configuration not stated) | inactive | – | –
56 | C=C[C@H](C)[C@H](O[Si](C)(C)C(C)(C)C)c1c(O)c2c(c3c(CCC)cc(=O)oc13)OC(C)(C)C=C2 | – | > 200 µM | 39.8 µM
57 | CC(=O)NNC(=S)N/C=C(\C#N)S(=O)(=O)c1ccc(C)cc1 | inactive | – | –
58 | O=S(Cc1cnc2ccccc2c1)c1nc2ccccc2nc1-c1cccs1 (configuration not stated) | – | > 6.76 µM | > 6.76 µM
